Test results as given in PMC7196072, “Cryo-EM structures of PAC1 receptor reveal ligand binding mechanism” (Cell Research, 2020).
Like-named read-outs stand apart in the source and are kept apart here.

Columns and labels:
[1] = tested on: PAC1R construct used in the cryo-EM studies; format: cell-based, human; settings: cAMP, BacMam CHO-K1, pH 7.4, 30 min 37 °C, average ± SD, N=3
Description: WT PAC1R and mutations used in the functional assay were cloned into pJIF1.1 for BacMam virus generation.
CHO-K1 cells were cultured in DMEM supplemented with 10% FBS and infected with BacMam viruses with a MOI of 100. 24 h after infection, cells were collected for membrane preparation or functional assay.
Activation of WT PAC1R and mutants was measured based on intracellular cAMP levels using Lance Ultra cAMP kit (PerkinElmer) according to the manufacturer’s protocol. […] Then 5 µL of 4× Eu-cAMP and 5 µL of 4× Ulight-Anti-cAMP working solutions were added to each well and incubated at room temperature for 60 min before reading with Envision (PerkinElmer). All signals (ratio of 665 nm/615 nm) were fit with a sigmoidal dose-response model using GraphPad Prism 7.
Both the average and S.D.
are calculated based 3 rounds of independent assays in 3 different days (N=3), and on each
day, duplicates were run for each dose on dose response curves.
# Ratio to WT is calculated as EC50 of mutation to EC50 of WT.
† The best-fit value of pEC50 from 3 different assays was used to calculate p value in T-test,
between WT and each mutation, with 2-tailed and equal variance (homoscedastic).

[2] = cited from earlier work
Description: As the major sensory and vasodilator neuropeptides, PACAP38 and VIP are involved in parasympathetic communication with the cranial vasculature. Abnormal activation and sensitization of the central trigeminovascular pain pathway mediate migraine and the release of these peptides.[5]

Compound | pEC50 [1] | induction of delayed migraine-like headaches ([2]; in vivo, iv) | induction of delayed migraine-like headaches ([2]; intravenous infusion)
CC[C@H](C)[C@H](NC(=O)CNC(=O)[C@H](CC(=O)O)NC(=O)[C@H](CO)NC(=O)[C@@H](N)Cc1cnc[nH]1)C(=O)N[C@@H](Cc1ccccc1)C(=O)N[C@H](C(=O)N[C@@H](CC(=O)O)C(=O)N[C@@H](CO)C(=O)N[C@@H](Cc1ccc(O)cc1)C(=O)N[C@@H](CO)C(=O)N[C@@H](CCCNC(=N)N)C(=O)N[C@@H](Cc1ccc(O)cc1)C(=O)N[C@@H](CCCNC(=N)N)C(=O)N[C@@H](CCCCN)C(=O)N[C@@H](CCC(N)=O)C(=O)N[C@@H](CCSC)C(=O)N[C@@H](C)C(=O)N[C@H](C(=O)N[C@@H](CCCCN)C(=O)N[C@@H](CCCCN)C(=O)N[C@@H](Cc1ccc(O)cc1)C(=O)N[C@@H](CC(C)C)C(=O)N[C@@H](C)C(=O)N[C@@H](C)C(=O)N[C@H](C(=O)N[C@@H](CC(C)C)C(=O)NCC(=O)N[C@@H](CCCCN)C(=O)N[C@@H](CCCNC(=N)N)C(=O)N[C@@H](Cc1ccc(O)cc1)C(=O)N[C@@H](CCCCN)C(=O)N[C@@H](CCC(N)=O)C(=O)N[C@@H](CCCNC(=N)N)C(=O)N[C@H](C(=O)N[C@@H](CCCCN)C(=O)N[C@@H](CC(N)=O)C(=O)N[C@@H](CCCCN)C(N)=O)C(C)C)C(C)C)C(C)C)[C@@H](C)O [PACAP38, pituitary adenylate cyclase-activating polypeptide] | 9.71 ± 0.21 | induces delayed migraine-like headaches | –
vasoactive intestinal polypeptide [VIP] | – | – | but not VIP induces delayed migraine-like headaches
